“Also recorded” adds a separate entry of the source.
Experiments:
RAW-Blue cells = test: NF-κB induction in RAW-Blue reporter cells (RAW 264.7 macrophages, SEAP); assay type: cell-based; details: RAW-Blue; sigmoidal 4PL fitting, 24 h
Summary of the method: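 RAW 264.7 macrophages with NF-κB-inducible SEAP, 100×10^3 cells/well, exposed to compound dilutions (from DMSO stocks in PBS) for 24 h at 37 °C, triplicate. Supernatant SEAP read with QUANTI-Blue at 640 nm after 3–6 h, normalized to DMSO blank; EC50 from 4PL fits.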

whole human blood [1] = test: IL-6 cytokine expression in stimulated whole human blood (ELISA); assay type: cell-based
Method: (§1) This example describes the general procedure used to assess the level of cytokine IL-6 and IL-12p40 expressions upon stimuli of whole human blood with small molecules or small molecules in liposomal formulations F1 and F2. 10 mM DMSO solutions of the small molecules were diluted in RPMI media (RPMI-1640, Sigma Aldrich) with 1% penicillin/streptomycin (p/s). […], of each dilution was transferred to Nunc™ 96-Well Polystyrene Conical Bottom MicroWell™ Plates in duplicates. Blood was drawn from two human donors, diluted in RPMI with 1% p/s and added to each well to reach final concentrations of 10 μM, 1 μM, and 0.1 μM of the small molecules. The plates were incubated at 37° C. in a cell incubator for 24h. The plates were then spun down in a plate centrifuge with 3200 revolutions per minute (rpm) for 10 min before 50 uL of the supernatant was transferred to new 96-well plates. The supernatant samples were subsequently stored at −80° C. until the day of cytokine measurements.
(§2) The level of cytokine expression was measured using either an IL-6 ELISA Kit (RnDSystems, cat #DY206) for IL-6, or an IL-12p40 ELISA Kit (RnDSystems, cat #DY1240) according to the manufacturer's protocols. This general procedure was used to generate the examples 24-33.

B16-F10 tumor = B16-F10 tumor model with adoptive cell transfer of PMEL cells (Example 80); assay type: in vivo, mouse; details: versus HBSS, PMEL alone and PMEL loaded with Gdq liposomes
Method: Spleens and lymphnodes were harvested from PMEL mice (B6. Cg-Thy1^a/Cy Tg(TcraTcrb)8Rest/J, Jackson Labs) and CD8 T cells purified by Mylteni MACS T cell separation kit. PMEL cells were stimulated and expanded on anti-CD3/CD28 coated plates with mouse IL2/IL7/IL21 cytokines, harvested and loaded with liposomes for evaluation in vivo. PMEL cells at 50×10^6/mL were incubated with liposomes at 10 mM lipid concentration for 60 minutes at 37 C, washed twice and formulated in HBSS prior to injection into the mice. In vivo study details show below. Briefly, 100 ul of 0.5×10^6 B16-F10 cells formulated in HBSS were injected SubQ (SQ) or intra-dermal (ID) and grown for 9 days prior to treatment. 1 day prior to treatment, 4 mg/mouse of cyclophosphamide (CPX) was injected intraperitoneal (IP) with 200 ul at 20 mg/mL in phosphate buffered saline (PBS). There were 10 mice used per group and all treatments were injected intravenous (IV) via tail vein injection, the groups were as follows: • HBSS alone (single dose) • 20×10^6 PMEL cells/mouse (single dose) • 20×10^6 PMEL cells/mouse backpacked with 2.5 antiCD45 Ab/liposome, 10% DOTAP, 35% cholersterol, 0.6% DSPE-PEG, POPC, pH gradient loaded as previously described with Gardiquimod (˜200 nmol Gardiquimod/mouse, single dose) • 20×10^6 PMEL cells/mouse followed by 4 mg/kg Gardiquimod systemically on day 0 (treatment day, day 6, day 13, day 25 • 20×10^6 PMEL cells/mouse followed by 2 mg/kg KRJ2-110 systemically on day 0 (treatment day), day 6, day 13, day 25

whole human blood [2] = test: IL-12p40 cytokine expression in stimulated whole human blood (ELISA); assay type: cell-based; details: drug/lipid ratio 0.1
Method: as §1, §2

[3] = Remote loading efficiency of small molecules into liposomes (PD-10 size exclusion, HPLC); assay type: physicochemical; details: for Remote loading efficiency 1 h (%): drug/lipid ratio 0.10, 1 h; for Remote loading efficiency 3 h (%): drug/lipid ratio 0.10, 3 h
Summary of the method: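 A lyophilized small-molecule powder (modified TLR agonist) was combined with liposome formulation at the desired drug/lipid ratio and stirred at elevated temperature. At 1 h and 3 h, 100 μL of mixture plus 900 μL buffer (25 mM HEPES, 10 vol % sucrose, pH 7.4) went onto a PD-10 size exclusion column. Ten 1 mL fractions were collected, and HPLC quantified compound in the liposome fractions as a percentage of the amount applied.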

[4] = Cytokine/chemokine release kinetics in blood of non-tumor bearing B6D2F1/J mice (Luminex); assay type: in vivo, mouse; details: single dose; 4 mg/kg Gdq or 2 mg/kg KRJ2-110 systemic, or loaded PMEL cells; 0-24 hr
Method: Spleens and lymphnodes were harvested from PMEL mice (B6. Cg-Thy1^a/Cy Tg(TcraTcrb)8Rest/J, Jackson Labs) and CD8 T cells purified by Mylteni MACS T cell separation kit. PMEL cells were stimulated and expanded on anti-CD3/CD28 coated plates with mouse IL2/IL7/IL21 cytokines and harvested for use. The cytokine/chemokine release profile in non-tumor bearing B6D2F1/J mice (Jackson Labs) was evaluated by injecting: • 20×10^6 PMEL cells alone, 20×10^6 PMEL cells loaded with 2.5 ant-CD45 Ab/liposome, 10% DOTAP, 35% cholesterol, 0.6% DSPE-PEG, POPC liposomes Gardiquimod pH gradient loaded as previously described (˜200 nmol gardiquimod, single dose) • 4 mg/kg Gdq systemic (no PMEL, single dose) • 2 mg/kg KRJ2-110 systemic (no PMEL, single dose)
Blood was drawn at 0, 0.25, 0.5, 1, 2, 4, 6, 10 and 24 hr and plasma was recovered for cytokine/chemokine quantitation using a Luminex kit. […] IP10 and TNFa are commonly used biomarkers for TLR7 agonists in human studies indicating these may be useful biomarkers in clinical studies for T cells loaded with TLR7 agonists.

[5] = amine in conjugation with the aromatic system; cited from earlier work

CCNCc1nc2c(N)nc3ccccc3c2n1CC(C)(C)O [Gardiquimod, reference compound]
EC50 (RAW-Blue cells): 1670 nM
Expression of IL-6 upon stimulation of whole human blood (whole human blood [1]; free small molecule, 10, 1, 0.1 μM, 24 h, two donors): induced expression of IL-6 at 10 μM in donor 2
Expression of IL-6 upon stimulation of whole human blood (whole human blood [1]; remote loaded in formulation F1, HEPES, drug/lipid ratio 0.1): No induction of IL-6 expression
Expression of IL-6 upon stimulation of whole human blood (whole human blood [1]; remote loaded in formulation F2, HEPES, drug/lipid ratio 0.1): capable of inducing expression of IL-6 at 10 μM; also recorded: capable of inducing expression of IL-6 in both donors; also recorded: the most potent
Weight of tumor bearing mice (B16-F10 tumor): more substantial weight loss
Expression of IL-12p40 upon stimulation of whole human blood (whole human blood [2]; remote loaded in formulation F1, HEPES): none of the small molecules Gardiquimod, MK087, MK088, and MK089 were capable of inducing expression of IL-12p40
Expression of IL-12p40 upon stimulation of whole human blood (whole human blood [2]; remote loaded in formulation F2, HEPES): capable of inducing expression of IL-12p40 in one donor at 10 μM
Remote loading efficiency 1 h (%) ([3]; formulation F1, HEPES): 89%
Remote loading efficiency 3 h (%) ([3]; formulation F1, HEPES): 92%
Remote loading efficiency 1 h (%) ([3]; formulation F2, HEPES): 89%
Remote loading efficiency 3 h (%) ([3]; formulation F2, HEPES): 92%
Proinflammatory cytokines such as IFNg, IL12 in blood [4]: significant increase in proinflammatory cytokines

CCOCc1nc2c(N)nc3ccccc3c2n1CC(C)(C)O [R848, Resiquimod, reference compound]
EC50 (RAW-Blue cells): 150 nM
pKa of the conjugate acid [5]: approximately 4
